We go through three compounds from patent US20180185360A1, “CGRP RECEPTOR ANTAGONIST COMPOUNDS FOR TOPICAL TREATMENT OF SKIN DISORDERS” (GALDERMA RESEARCH & DEVELOPMENT, priority 2015, published 2018).

The test system of data set [1] is αCGRP-induced skin blood perfusion increase. Briefly: CGRP-induced mice model of vasodilatation (Laser Doppler skin blood perfusion, right ear). The format is in vivo, BALB/c mice. The conditions noted are these: for decrease of the CGRP flush (AUC skin blood perfusion 0 to 15 min): topical, 90 min prior to αCGRP 20 μg/kg i.v. The protocol:
(§1) This study has been conducted on BALB/c mice, 5 mice per group have been used.
Body temperature was maintained at 35° C.-37° C. using an automated heating pad. Images were obtained from Laser Doppler perfusion imaging PIM3 (Perimed, France). For each mouse, the skin blood perfusion was evaluated every minute on the right ear. The laser beam of the PIM3 scanned a skin area of 2×2 cm. Prior to the treatment, 2 scans were performed.
The duration of the recording was 22 minutes in total.
The blood perfusion is mapped as colour coded images at intervals of 1 min. For each mouse ear, the area corresponding to the internal part of the ear is defined and adjusted for each image. From this selected area, we take the highest of the first two images as the background of blood perfusion (I ref). The background value is then subtracted from the next images of the kinetic.
The software calculates the erythematous surface (S) and the mean of the blood perfusion intensity (I) in this surface for the region of interest for all the images. […] For each time of kinetic, the relative area of blood perfusion is calculated as follow: Relative area of perfusion=(I/I ref)×S

Data set [2] can be described thus: Skin concentration two hours after single topical application on the mouse ear. The format is in vivo, BALB/c mice. The conditions noted are these: 0.003% to 3%.
Source text: as §1
At the end of the scan, blood is collected from the abdominal artery on anesthetized animals. The animals are then euthanatized and the treated ear collected and weighted. Plasma and ear are snapped frozen.

The test system of data set [3] is Dermatophagoides farinae (Der f)-induced AD-like skin inflammation. Briefly: Der f-induced atopic dermatitis mouse model. The format is in vivo, Balb/c mice. The protocol: Der f has been purchased from Greer Laboratories and a Der f solution has been prepared in 70% DMSO in MilliQ water. 375 μg of Der f has been applied during 7 weeks on the left ear of mice. Compounds to be tested were applied every day of the week except during the weekend, on the Der f treated ear from week 4 until day 44. • 1.2. Compounds • 1.2.1. MK3207 (CD10192/41) MK3207 (CD10192/41) has been provided by Galderma and 3% of MK3207 (CD10192/41) solutions in ethanol have been prepared. • 1.2.2. Triamcinolone Acetonide Triamcinolone acetonide has been chosen as positive control for the Der f model. 0.01% of triamcinolone acetonide solution in ethanol has been used. • 1.2.3. Ethanol Ethanol 100 has been chosen as a vehicle to solubilize the compounds. • 1.3. Mice Balb/c mice strain has been used for the study. These animals have been obtained from controlled breeding and were specific pathogen free. The animals have been provided by Janvier SAS, France. • 1.4. Protocol AD-like lesions have been induced by topical application of 375 μl of Der f solution on each side of the left ear for 7 weeks at day 1, day 8, day 15, day 22, day 29, day 36 and day 43. Mice have been treated from day 20 to day 43 five days by week with the different solutions administrated by the topical route. Measurement of ear swelling has been monitored 24 hours after each allergen application. After day 19, ear swelling has been daily measured before compound application. After mouse euthanasia, at Day 44 the left ear has been collected and has been washed in ethanol 70% and has been rinsed in PBS. Skin biopsies of the left ear, have then been collected for cytokines profile quantification with Luminex technique and for the quantification of the eosinophil peroxidase thanks to the ELISA method. Draining lymph nodes have been collected and cultivated a whole night restimulated or not with 0.5 mg/ml of Der f extract before quantifying the number of Der f specific lymphocytes T producing INFγ.

Data set [4] deals with imiquimod (Aldara) induced psoriasiform skin inflammation. In words: Imiquimod induced psoriasiform mice model. The conditions noted are these: CD10192/41 at 2% topical twice daily, 2 h before and 6 h after Aldara. The data set is classed as in vivo, Balb/c mice. The protocol: Imiquimod psoriasiform model has been induced by daily topical application of Aldara (3.18 mg of imiquimod) for 3 or 7 days on the shaved back skin of Balb/c mice. The pharmacodynamic analysis were performed by using a transcriptional analysis at D4, a histological analysis at D4 and D8, a cells analysis at D8 and a Cytokines analysis at D8. • 1.2. Compounds • 1.2.1. Imiquimod
Imiquimod is sold under the name Aldara™ 5% by 3M-Pharmaceutical. 63.5 mg of Aldara cream is applied on the back skin of the mice, representing 3.2 mg of active compound. • 1.2.2. MK3207 (CD10192/41)
MK3207 compound is dissolved in PG/Ethanol 96 (30/70) and applied twice daily 2 h 00 before and 6 h 00 after Aldara treatment. • 1.2.3. Vehicles
PG/Ethanol (30/70) is used as a vehicle. • 1.2.4. Positive Control
CD0153F (Betamethasone valerate) at 0.01% (0.210 mM) in acetone by topical route is used as positive control. • 1.3. Mice
Balb/c mice strain has been used for the study. These animals have been obtained from controlled breeding and were specific pathogen free. The animals have been provided by Janvier SAS, France. • 1.4. Protocol […]
At day 4 skin biopsies were collected for quantifying gene expression of the inflammatory response via RT-PCR and for measuring epidermis thickness via histological stained slides (HE). […]

The conditions of data set [5]: clinical development discontinued; cited from earlier work.
[6] abbreviates: MK3207 3% topical, day 44, ear skin biopsies, Luminex.

`O=C(CN1C(=O)C2(CCCC2)NC[C@H]1c1cc(F)cc(F)c1)Nc1ccc2c(c1)C[C@@]1(C2)C(=O)Nc2ncccc21` [MK3207, 2-[(8R)-8-(3,5-difluorophenyl)-10-oxo-6,9-diazaspiro[4.5]dec-9-yl]-N-[(2R)-2′-oxo-1,1′,2′,3-tetrahydrospiro[indene-2,3′-pyrrolo[2,3-b]pyridin]-5-yl]acetamide]: in data set [1] (MK3207 0.003% in ethanol, NS, p=0.2259), the “decrease of the CGRP flush (AUC skin blood perfusion 0 to 15 min)” value (“decrease of the CGRP flush” for short) worked out at 31%. Also, the “decrease of the CGRP flush” value in data set [1] (MK3207 0.03% in ethanol, NS, p=0.0567) is given as 49%. In addition, in data set [1] (MK3207 0.3% in ethanol, p=0.0112), the “decrease of the CGRP flush” value worked out at 70%. Moreover, the “decrease of the CGRP flush” value in data set [1] (MK3207 3% in ethanol, p=0.0083) turned out to be 80%. Moreover, the “inhibition of αCGRP-induced increase in skin blood perfusion, dose dependence” value in data set [1] (topical 0.003% to 3%, 90 minutes prior to αCGRP, p=0.0017) is “inhibited this increase in a dose-dependent manner”. In data set [2], the “detection in skin samples” value is reported as “detected in skin samples at all doses tested”. Moreover, in data set [3] (MK3207 3% topical, day 44, ear skin biopsies, ELISA), the “eosinophil peroxidase production (EPX)” value is reported as “reduction”. Besides, in data set [3] (setting [6]), the “production of IL17A” value is listed as “significantly reduced”, the “production of IL-4” value is “significantly reduced”, the “production of IL-5” value is listed as “significantly reduced” and the “production of IL-13” value is recorded as “significantly reduced”. Further, in data set [3] (setting [6]), the “production of TNFα” value was “significantly reduced”. Also, the “production of IFNγ by lymphocyte T cells” value in data set [3] (draining lymph nodes restimulated with Der f, MK3207 3%, triamcinolone acetonide 0.01% topical) is listed as “decrease”. For the same compound, the ear swelling result in data set [3] (topical MK3207, as soon as day 27 with a similar effect until day 43) was “decrease”. Also, the “ear swelling / ear edema” value in data set [3] (topical in ethanol, MK3207 3% (day 44), triamcinolone acetonide 0.01%) is given as “decrease”. In addition, the “reduction of the epidermis thickness” value in data set [4] (day 4) is listed as 33%. In addition, the “reduction of the number of IL17-production within the γδ T cells” value in data set [4] (day 8) is 55%. The “toxicity associated with oral use” value in data set [5] is “severe hepatotoxicity”.
Consider `NCCCC[C@H](NC(=O)[C@@H](Cc1cc(Br)c(O)c(Br)c1)NC(=O)N1CCC(N2Cc3ccccc3NC2=O)CC1)C(=O)N1CCN(c2ccncc2)CC1` [olcegepant, reference compound], for which the “toxicity associated with oral use” value in data set [5] is “severe hepatotoxicity”.
On to `O=C(N[C@@H]1CC[C@@H](c2cccc(F)c2F)CN(CC(F)(F)F)C1=O)N1CCC(n2c(=O)[nH]c3ncccc32)CC1` [telcagepant, reference compound], for which the “toxicity associated with oral use” value in data set [5] is recorded as “severe hepatotoxicity”.
